We go through 30 compounds from ChEMBL document CHEMBL1128982, “3-Hydroxy-quinolin-2-ones: Inhibitors of [3H]-glycine binding to the site associated with the NMDA receptor” (Bioorg Med Chem Lett, 1996).

Usually IC50 stands for the concentration that gives 50% inhibition. By inhibition is commonly meant the relative decrease from the control value, in per cent.

One experiment concerns the target Glutamate NMDA receptor. In words: Displacement of [3H]-glycine from NMDA receptor of rat cortical membranes. The format is cell membranes, Membrane. For orientation: Displacement assays read how much labelled ligand stays bound in the presence of the test substance.
Experiment [1] concerns the target T1, Glutamate NMDA receptor (Rattus norvegicus) (UniProt P35439+Q00959+Q00960+Q00961+Q62645+Q8VHN2+Q9R1M7). Put plainly: Displacement of [3H]glycine from NMDA receptor of rat cortical membranes. It is filed as cell membranes. On the set-up: concentration or dose not given beside the values. Conditions: Membrane, concentration not given here.
The target in experiment [2] is T1, Glutamate NMDA receptor (Rattus norvegicus). Put plainly: Compound was evaluated for its ability to displace [3H]-glycine from rat cortical membranes at concentration 10 uM for NMDA receptor.
Experiment [3] deals with Glutamate receptor ionotropic, AMPA (Rattus norvegicus) (UniProt P19491+P19492+P19493+P19490). In words: Displacement of [3H]AMPA from AMPA receptor of rat cortical membranes. It is filed as cell membranes. On the set-up: concentration or dose not given beside the values. Conditions: Membrane, concentration not given here.

Structures are written as SMILES.

`Oc1nc2ccccc2c(Cl)c1O` registered an IC50 on Glutamate NMDA receptor of 1400 nM. As for `Oc1nc2ccc(Cl)c(Cl)c2c(Cl)c1O`, the inhibition in experiment [1] was 20%. At Glutamate NMDA receptor, `CCOC(=O)c1c(O)c(O)nc2cc(Cl)cc(Cl)c12` registered an IC50 of 62 nM.

With `CCOC(=O)c1c(OC)c(O)nc2ccccc12`, in experiment [2], the inhibition is 0%. `Oc1nc2ccc(Cl)c(Cl)c2c(Br)c1O` returned an inhibition in experiment [1] of 23%. Turning to `CCOC(=O)c1c(OC)c(O)nc2cc(Cl)cc(Cl)c12`, in experiment [2], the inhibition amounted to 5%.

As for `CCOC(=O)/C=C/c1c(O)c(O)nc2ccccc12`, the inhibition in experiment [1] was found to be 11%. On Glutamate NMDA receptor, `Oc1nc2cc(Cl)cc(Cl)c2c(Cl)c1O` registered an IC50 of 4500 nM. The compound also came in with an inhibition in experiment [3] of 48%.

With `O=c1[nH]c2ccccc2cc1O`, in experiment [1], the inhibition came to 29%. `O=C(O)C(=O)c1c(O)c(O)nc2ccccc12` had an IC50 on Glutamate NMDA receptor of 1800 nM. Further, the inhibition in experiment [3] is 31.9%. Regarding `CCOC(=O)c1c(O)c(O)nc2cc(Cl)c(Cl)cc12`, in experiment [1], the inhibition came to 43%. As for `COC(=O)C(=O)c1c(O)c(O)nc2ccccc12`, the IC50 at Glutamate NMDA receptor was determined as 3000 nM. The compound further returned an inhibition in experiment [3] of 2.6%. On to `Oc1nc2ccccc2c(Br)c1O`, for which the inhibition in experiment [1] came out at 59%. Regarding `CCOC(=O)c1c(OC)c(O)nc2cc(Cl)c(Cl)cc12`, the inhibition in experiment [2] came to 0%.

`O=C(O)C(=O)c1c(O)c(O)nc2cc(Cl)cc(Cl)c12` yielded an IC50 at Glutamate NMDA receptor of 520 nM. Also, the inhibition in experiment [3] worked out at 63%.

`CCOC(=O)C(=O)c1c(O)c(O)nc2ccccc12` gave an IC50 on Glutamate NMDA receptor of 12000 nM. Compound `O=C(Nc1ccccc1)C(=O)c1c(O)c(O)nc2cc(Cl)cc(Cl)c12` had an IC50 at Glutamate NMDA receptor of 760 nM. This compound gave an inhibition in experiment [3] of 40%. Taken in the same sequence, the figures for `COC(=O)C(=O)c1c(O)c(O)nc2cc(Cl)cc(Cl)c12` were 150 nM and 28%.

For `Oc1nc2cc(Cl)cc(Cl)c2c(Br)c1O`, on Glutamate NMDA receptor, the IC50 is 2800 nM. The same compound returned an inhibition in experiment [3] of 41%. For the compound `CCOC(=O)c1c(O)c(O)nc2ccccc12`, the inhibition in experiment [1] stood at 50%. Still for that read-out and setting: to `O=C(O)c1c(O)c(O)nc2ccccc12` belongs 60%; to `O=C(NCc1ccccc1)c1c(O)c(O)nc2ccccc12`, 40%; to `O=C(O)CCc1c(O)c(O)nc2ccccc12`, 25%. On the same count and under the same terms, to `O=C(O)/C=C/c1c(O)c(O)nc2ccccc12` belongs 43%. `CNC(=O)C(=O)c1c(O)c(O)nc2cc(Cl)cc(Cl)c12` gave an IC50 on Glutamate NMDA receptor of 3800 nM. The compound also had an inhibition in experiment [3] of 15%. Turning to `Oc1cc2c(Cl)cc(Cl)cc2nc1O`, in experiment [1], the inhibition amounted to 29%. In turn, `Oc1cc2c(Cl)c(Cl)ccc2nc1O` returned an inhibition in experiment [1] of 0%. Still for that read-out and setting: to `CCOC(=O)c1c(O)c(O)nc2ccc(Cl)c(Cl)c12` belongs 38%. Regarding `CCOC(=O)C(=O)c1c(O)c(O)nc2cc(Cl)cc(Cl)c12`, at Glutamate NMDA receptor, the IC50 was 29 nM. The compound further registered an inhibition in experiment [3] of 56%. `COc1ccc(NC(=O)c2c(O)c(O)nc3ccccc23)cc1OC` displayed an inhibition in experiment [1] of 0%.
